Data on 26 molecules can be found in patent US9169223B2, “Functionalised antifouling compounds and use thereof” (Agency for Science, Technology and Research, priority 2010, dated 2015).

Molecules are shown by their SMILES. Converted amounts (≈) assume the structure as drawn. Like-named read-outs stand apart in the source and are kept apart here. Some results are limits rather than exact numbers.

Data set [1] concerns stage II naupliar larvae of the barnacle Amphibalanus amphitrite. Nature of the data set: Toxicity assay with barnacle nauplii. In kind it is in vivo. How it is done: Biological assays were conducted with larval barnacles. Barnacles are dominant and tenacious members of marine fouling communities, and often serve as a substrate for less resistant organisms. Therefore, historically they have been used as a model organism for antifouling studies. To determine the biological response of larvae to test compounds, two bioassays were performed: settlement (using settlement stage cyprids), and toxicity (using nauplii). Procedures followed methods standard in the field, which were first described by Rittschof et al. (1992).
(§1) Stock solutions of each compound were made at 50 mg/ml. Pure compounds were diluted in DMSO and sonicated. Stock solutions were stored at −20° C. in 4 ml amber screw cap vials until use. For bioassays, a small amount of stock solution was diluted in 1 μm filtered seawater (in a glass scintillation vial). The solution was then sonicated for 10 minutes. To obtain the desired concentration range, serial dilutions of the test solution were made. As control, a serial dilution of the equivalent amounts of DMSO in seawater was used.
Toxicity assays employed stage II naupliar larvae of the barnacle Amphibalanus amphitrite (previously Balanus amphitrite: Pitombo, 2004). Assay procedures were modified from Rittschof et al. (1992). Adult A. amphitrite were collected from inter-tidal areas near the Kranji mangrove, Singapore. Larval culture was based on Rittschof et al. (1984). Following collection, nauplii were concentrated for use in bioassays by placing a fiber optic light source at one side of the container, and pipetting from the resulting dense cloud of nauplii.
In order to determine LD50 values for each compound, compounds were tested over a range of concentrations between 0-50 μg/ml. For each assay, each compound at each concentration was tested in triplicate with a single batch of nauplii. The overall assay was conducted twice, using two different batches of nauplii. Two controls were run along with each assay (in triplicate): filtered seawater only, and DMSO at […] (since DMSO was used as a solvent for test compounds, this concentration is equivalent to the concentration of DMSO in the highest test compound concentration).
For assays, approximately 20 nauplii (in 50 μl filtered seawater) were added to 1 ml test solution or control, in a 2 ml glass vial (La Pha Pack® PN 11-14-0544). Assays were run for 22-24 hours at 25-27° C. After this time, living and dead nauplii were counted using a Bogorov tray. Nauplii that were approaching death were scored as dead. Data for all assays was combined and LD50 was calculated (where possible) using a probit analysis (Libermann, 1983). If LD50 could not be calculated using probit analysis, values were extrapolated based on plotted data.

The test system of data set [2] is barnacle cyprids. The data set is described as follows: Settlement assay with barnacle cyprids. It is filed as in vivo, Amphibalanus amphitrite. As to conditions: for TR (LD50/ED50): therapeutic ratio, LD50 (nauplii) / ED50 (cyprids); for IC50: Amphibalanus amphitrite, 24 h. How it is done:
Biological assays were conducted with larval barnacles. Barnacles are dominant and tenacious members of marine fouling communities, and often serve as a substrate for less resistant organisms. Therefore, historically they have been used as a model organism for antifouling studies. To determine the biological response of larvae to test compounds, two bioassays were performed: settlement (using settlement stage cyprids), and toxicity (using nauplii).
as §1
Nauplii were cultured as described above, and then reared at 25° C. on an algal mixture of 1:1 v/v of Tetraselmis suecica and Chaetoceros muelleri (approximately density 5×10^5 cells per ml). Under these conditions, nauplii typically metamorphose to cyprids in 5 days. Cyprids were aged at 4° C. for 2 days.
Settlement assays were conducted in 7 ml neutral glass vials (Samco® T103/V1; 34×23 mm diameter). For assays, each solution was made at twice the desired final concentration; 0.5 ml of this solution was transferred to vials. To each vial, cyprids were added by transferring 0.5 ml filtered seawater containing 20-40 aged cyprids. As in toxicity assays: each compound at each concentration was run in triplicate with cyprids from a single batch; two controls (filtered seawater and DMSO) were run along with each assays; and the overall assay was conducted twice, using two different batches of cyprids.
Assays were conducted for 24 hours, after which time the number of settled cyprids, the number of free swimming (unsettled) cyprids, and the number of dead cyprids were counted for each vial. Both metamorphosed, juvenile barnacles and cyprids that had committed to settlement (glued themselves to the vial), but had not yet metamorphosed, were counted as ‘settled’. Data was expressed as percent settlement. […] If ED50 could not be calculated using probit analysis, values were extrapolated based on plotted data.

Setting [3] is: Amphibalanus amphitrite (barnacle), stage II naupliar larvae, in vivo.
Setting [4] is: anti-settlement, barnacle cyprids, 24 hours, concentration causing 50% reduction in settlement vs controls.
[5] abbreviates: anti-settlement, barnacle cyprids, 24 hours, concentration causing 50% reduction in settlement vs controls, read-out: ED50 (the source's name).

`CCCCC(C(=O)N1CCCCC1)c1ccc(OC)cc1OC` (single isomer, unassigned) [Compound 15.6] had an LD50 in data set [1] (setting [3]) of 33.21 µg/mL. Moreover, the ED50 in data set [2] (setting [4]) is 9.12 µg/mL (≈ 28.5 µM). The “TR (LD50/ED50)” value in data set [2] stood at 3.64.
On the same counts, the results for `CCCCC(C(=O)N1CCCCC1)c1ccccc1CO` (single isomer, unassigned) [Compound 16.1] are greater than 50 µg/mL, 4.11 µg/mL (≈ 14.2 µM) and greater than 12.17.
`CCCCC(C(=O)N1CCCCC1)c1ccccc1` (centres unmarked) [Compound 12.1, reference compound] returned an LD50 in data set [1] (setting [3]) of 9.11 µg/mL. Also, the IC50 in data set [2] (setting [5]) was found to be 1.5 µg/mL (≈ 5.78 µM). Also, the “TR (LD50/ED50)” value in data set [2] worked out at 6.07.
For `CCCCC(CCCC)C(=O)N1CCCCC1` [Compound 12.2, reference compound], the LD50 in data set [1] (setting [3]) worked out at 9.83 µg/mL. The IC50 in data set [2] (setting [5]) was 2 µg/mL (≈ 8.35 µM). Moreover, the “TR (LD50/ED50)” value in data set [2] stood at 4.92.
`CCCCC(C(=O)N1CCCCC1)c1ccc(OC)cc1` (centres unmarked) [Compound 15.1, 2-(4-methoxy)phenyl-(1-piperidin-1-yl)hexanone]: in data set [1] (setting [3]), the LD50 was determined as 22.95 µg/mL. In addition, in data set [2] (setting [5]), the IC50 came to 0.19 µg/mL (≈ 0.656 µM). In addition, the “TR (LD50/ED50)” value in data set [2] is 120.79.
The like results for `CCCCC(C(=O)N1CCCCC1)c1cccc(OC)c1` (centres unmarked) [Compound 15.2] were, in that order, greater than 25 µg/mL, 1.46 µg/mL (≈ 5.04 µM) and greater than 17.12.
The like results for `CCCCC(C(=O)N1CCCCC1)c1ccccc1OC` (centres unmarked) [Compound 15.3] were, in that order, 3.67 µg/mL, 2.85 µg/mL (≈ 9.85 µM) and 1.29.
Regarding `CCCCC(C(=O)N1CCCCC1)c1cc(OC)cc(OC)c1` (centres unmarked) [Compound 15.4], the LD50 in data set [1] (setting [3]) amounted to 8.22 µg/mL. Further, the IC50 in data set [2] (setting [5]) came to 3.29 µg/mL (≈ 10.3 µM). Further, in data set [2], the “TR (LD50/ED50)” value was found to be 2.5.
The like results for `CCCCC(C(=O)N1CCCCC1)c1cc(OC)ccc1OC` (centres unmarked) [Compound 15.5] were, in that order, 8.66 µg/mL, 2.16 µg/mL (≈ 6.76 µM) and 4.01.
Regarding `CCCCC(C(=O)N1CCCCC1)c1ccc(OC(C)=O)cc1` (centres unmarked) [Compound 16.4, 4-(1-oxo-1-(piperidin-1-yl)hexan-2-yl)phenyl acetate], the LD50 in data set [1] (setting [3]) turned out to be 27.2 µg/mL. In addition, the IC50 in data set [2] (setting [5]) amounted to 0.23 µg/mL. For the same molecule, the “TR (LD50/ED50)” value in data set [2] stood at 118.26.
On the same counts, the results for `CCCCC(C(=O)N1CCCCC1)c1ccc(O)cc1` (centres unmarked) [Compound 16.5, 2-(4-hydroxyphenyl)-1-(piperidin-1-yl)hexan-1-one] are 17.15 µg/mL, 0.19 µg/mL (≈ 0.69 µM) and 90.26.
In the case of `CCCCC(C(=O)N1CCCCC1)c1ccc(OCCO)cc1` (centres unmarked) [Compound 16.6, 2-(4-(2-hydroxyethoxy)phenyl)-1-(piperidin-1-yl)hexan-1-one], the LD50 in data set [1] (setting [3]) was greater than 50 µg/mL. Moreover, the IC50 in data set [2] (setting [5]) was found to be 9.25 µg/mL (≈ 29 µM). Also, the “TR (LD50/ED50)” value in data set [2] is given as greater than 5.41.
On the same counts, the results for `CCCCC(C(=O)N1CCCCC1)c1ccc(OCC(=O)OC)cc1` (centres unmarked) [Compound 16.7, Methyl 2-(4-(1-oxo-1-(piperidin-1-yl)hexan-2-yl)phenoxy)acetate] are 24.58 µg/mL, 26.9 µg/mL (≈ 77.4 µM) and 0.91.
On the same counts, the results for `CCCCC(C(=O)N1CCCCC1)c1ccc(OCCOC(C)=O)cc1` (centres unmarked) [Compound 16.8, 2-(4-(1-oxo-1-(piperidin-1-yl)hexan-2-yl)phenoxy)ethyl acetate] are greater than 50 µg/mL, 29.1 µg/mL and 1.72.
In data set [1] (setting [3]), `CCCCC(C(=O)N1CCCCC1)c1ccc(OCC(=O)O)cc1` (centres unmarked) [Compound 16.9, 2-(4-(1-oxo-1-(piperidin-1-yl)hexan-2-yl)phenoxy)acetic acid] had an LD50 greater than 50 µg/mL. The IC50 in data set [2] (setting [5]) was greater than 50 µg/mL.
Molecule `CCCCC(C(=O)N1CCCCC1)c1ccc(OCC[Si](C)(C)C)cc1` (centres unmarked) [Compound 16.10, 1-(piperidin-1-yl)-2-(4-(2-(trimethylsilyl)ethoxy)phenyl)hexan-1-one] displayed an LD50 in data set [1] (toxicity, barnacle nauplii, 22-24 hours, 0-50 μg/ml) greater than 50 µg/mL. Further, the IC50 in data set [2] (read-out: ED50) came out at 3.49 µg/mL (≈ 9.29 µM). Also, in data set [2], the “TR (LD50/ED50)” value was greater than 14.33.
In the case of `C=CC(=O)Oc1ccc(C(CCCC)C(=O)N2CCCCC2)cc1` (centres unmarked) [Compound 16.11, 4-(1-oxo-1-(piperidin-1-yl)hexan-2-yl)phenyl acrylate], the LD50 in data set [1] (setting [3]) came to 6.57 µg/mL. The IC50 in data set [2] (setting [5]) is 1.53 µg/mL (≈ 4.64 µM). In data set [2], the “TR (LD50/ED50)” value is 4.29.
`C=CCCCCC(C(=O)N1CCCCC1)c1ccc(OC)cc1` (centres unmarked) [Compound 17.1, 2-(4-methoxyoxyphenyl)-1-(piperidin-1-yl)oct-7-en-1-one] yielded an LD50 in data set [1] (setting [3]) of 9.27 µg/mL. Besides, the IC50 in data set [2] (setting [5]) is 2.37 µg/mL (≈ 7.51 µM). Also, in data set [2], the “TR (LD50/ED50)” value was 3.91.
In the case of `CCCCC(C(=O)N(C)C)c1ccc(OC)cc1` (centres unmarked) [Compound 17.2, 2-(4-methoxyphenyl)-N,N-dimethylhexanamide], the LD50 in data set [1] (setting [3]) was greater than 50 µg/mL. Besides, the IC50 in data set [2] (setting [5]) was found to be 8.69 µg/mL (≈ 34.9 µM). In data set [2], the “TR (LD50/ED50)” value is given as greater than 5.75.
For the molecule `C=CCCCCC(C(=O)N(C)C)c1ccc(OC)cc1` (centres unmarked) [Compound 17.3, 2-(4-methoxyphenyl)-N,N-dimethyloct-7-enamide], the LD50 in data set [1] (setting [3]) is 18.61 µg/mL. The IC50 in data set [2] (setting [5]) is 2.85 µg/mL (≈ 10.3 µM). Further, in data set [2], the “TR (LD50/ED50)” value is reported as 6.53.
`CCCCC(C(=O)N1CCCCC1)c1ccccc1O` (centres unmarked) [Compound 17.4] displayed an LD50 in data set [1] (setting [3]) of 14.62 µg/mL. Also, in data set [2] (setting [5]), the IC50 came out at 0.65 µg/mL (≈ 2.36 µM). In addition, the “TR (LD50/ED50)” value in data set [2] is 22.49.
On the same counts, the results for `CCCCC(C(=O)N1CCCCC1)c1cccc(O)c1` (centres unmarked) [Compound 17.5] are 25.14 µg/mL, 3.44 µg/mL (≈ 12.5 µM) and 7.31.
The like results for `C=CCCCCC(C(=O)N1CCCCC1)c1ccc(O)cc1` (centres unmarked) [Compound 17.6, 2-(4-hydroxyphenyl)-1-(piperidin-1-yl)oct-7-en-1-one] were, in that order, 9.82 µg/mL, 2.14 µg/mL (≈ 7.1 µM) and 4.59.
On the same counts, the results for `CCCCC(C(=O)N(C)C)c1ccc(O)cc1` (centres unmarked) [Compound 17.7, 2-(4-hydroxyphenyl)-N,N-dimethylhexanamide] are greater than 50 µg/mL, 34.1 µg/mL (≈ 145 µM) and greater than 1.46.
In turn, `C=CCCCCC(C(=O)N(C)C)c1ccc(O)cc1` (centres unmarked) [Compound 17.8, 2-(4-hydroxyphenyl)-N,N-dimethyloct-7-enamide] yielded an LD50 in data set [1] (setting [3]) of 12.46 µg/mL. Further, the IC50 in data set [2] (setting [5]) was determined as 4.29 µg/mL (≈ 16.4 µM). Moreover, the “TR (LD50/ED50)” value in data set [2] is on record as 2.90.
Take `CCCCC(C(=O)N1CCCCC1)c1ccc(C(=O)O)cc1` (centres unmarked) [Compound 17.9, 4-(1-oxo-1-(piperidin-1-yl)hexan-2-yl)benzoic acid]: the LD50 in data set [1] (setting [3]) was greater than 50 µg/mL. For the same molecule, the IC50 in data set [2] (setting [5]) is greater than 50 µg/mL. Further, the “TR (LD50/ED50)” value in data set [2] is reported as 1.
